Source: ChEMBL document CHEMBL1148181, “Anti-AIDS agents, 9. Suberosol, a new C31 lanostane-type triterpene and anti-HIV principle from Polyalthia suberosa” (J Nat Prod, 1993)
Values after ≈ are worked out from the molar mass of the structure shown.

Columns and labels:
H9 = experiment: Cytotoxicity against human H9 lymphocytes; assay type: cell-based
[1] = system: Human immunodeficiency virus 1; experiment: Antiviral activity against HIV1 3B in human H9 lymphocytes after 3 days by p24 antigen capture assay; assay type: functional, organism-based; conditions: Human immunodeficiency virus 1, 3B, 72 h

SMILES: C=C(CC[C@@H](C)[C@H]1C[C@H](O)[C@@]2(C)C3=CC[C@H]4C(C)(C)[C@@H](O)CC[C@]4(C)C3=CC[C@]12C)C(C)C [SUBEROSOL]
- IC50 (H9): 20 mg/L (≈ 44 µM)
- EC50 [1]: 3 mg/L (≈ 6.6 µM)
